Results taken from patent publication US20260015364A1, “PIPERAZINE BRIDGE-SUBSTITUTED HETEROCYCLIC PYRIMIDINE COMPOUND” (MEDSHINE DISCOVERY INC., priority 2022, published 2026).

Test: In vivo pharmacokinetic experiment in CD-1 mice
Procedure: This experiment aims to investigate the pharmacokinetic properties of the compounds of the present disclosure administrated by oral and intravenous injection in CD-1 mice.
The test compound was mixed with 10% dimethyl sulfoxide+90% (10% hydroxypropyl-β-cyclodextrin (HP-β-CD) aqueous solution), vortexed, and sonicated to prepare 0.6, 3.0, and 10.0 mg/mL clear solutions, respectively. Male CD-1 mice aged 7 to 10 weeks were selected and intravenously injected (i.v.) with a solution of the candidate compound at a dose of 3 mg/kg (administration concentration of 0.6 mg/mL). The solution of the candidate compound was administered orally (p.o.) at a dose of 30 mg/kg (administration concentration of 3.0 mg/mL) or 100 mg/kg (administration concentration of 10.0 mg/mL). Whole blood was collected for a certain period of time and prepared into plasma. The drug concentration was analyzed by the LC-MS/MS method, and the pharmacokinetic parameters were calculated using Phoenix WinNonlin software (Pharsight, USA).

[1] = male, mouse, iv, 3 mg/kg, i.v. 3 mpk, plasma
[2] = male, mouse, po, 30 mg/kg, p.o. 30 mpk, plasma
[3] = male, mouse, po, 100 mg/kg, p.o. 100 mpk, plasma

In the case of C#Cc1c(F)ccc2cc(N)cc(-c3ncc4c(N5CC6CCC(C5)N6)nc(OC[C@@]56CC(=C)CN5C[C@@H]5C[C@@H]56)nc4c3F)c12 (single isomer, unassigned) [Compound 3], the AUC(0-inf) [1] is reported as 1.66 µM·h, the AUC(0-t) [1] is reported as 1.56 µM·h and the Vd [1] is reported as 41.1 L/kg. It also gave a clearance [1] of 50.8 mL/min/kg, a half-life [1] of 9.3 h and an AUC(0-inf) [2] of 1.18 µM·h. It also gave an AUC(0-t) [2] of 1.15 µM·h, a Cmax [2] of 439 nM and a Tmax [2] of 0.583 h. It also gave a half-life [2] of 5.41 h, an AUC(0-inf) [3] of 13.3 µM·h and an AUC(0-t) [3] of 13.1 µM·h. It also gave a Cmax [3] of 3110 nM, a Tmax [3] of 1.25 h and a half-life [3] of 4.24 h. It also gave an F (p.o. 100 mpk) of 24.0%.
